Reference: patent US12077503B2, “Substituted cyclic amides and their use as herbicides” (FMC CORPORATION, priority 2015, dated 2024)

What was measured:
Type in all cases: in vivo
[1] = system: barnyardgrass (Echinochloa crus-galli); test: Test B flooded paddy test; settings: Echinochloa crus-galli, 250 g ai/ha, Flood; 0 to 100 scale where 0 is no effect and 100 is complete control; read-out: Barnyardgrass plant response rating
In short: (§1)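 Response scored visually against untreated controls, 0 = no effect and 100 = complete control, 13–15 d after treatment in the greenhouse. Compounds added to paddy water held 3 cm above soil surface. Treatment given at 2-leaf stage.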

rice (Oryra sativa) = test: Test B flooded paddy test; settings: Oryza sativa, 250 g ai/ha, Flood; 0 to 100 scale where 0 is no effect and 100 is complete control; read-out: Rice plant response rating
In short: as §1

[2] = system: sedge, umbrella (small-flower umbrella sedge, Cyperus difformis); test: Test B flooded paddy test; settings: Cyperus difformis, 250 g ai/ha, Flood; 0 to 100 scale where 0 is no effect and 100 is complete control; read-out: Sedge, Umbrella plant response rating
In short: as §1

[3] = system: ducksalad (Heteranthera limosa); test: Test B flooded paddy test; settings: Heteranthera limosa, 250 g ai/ha, Flood; 0 to 100 scale where 0 is no effect and 100 is complete control; read-out: Ducksalad plant response rating
In short: as §1

[4] = system: blackgrass (Alopecurus myosuroides); test: Test A postemergence; settings: Alopecurus myosuroides, post-emergence, 240 h, read-out: Plant response rating, Blackgrass; for pest or weed control at 125 g/ha: 125 g ai/ha, Postemergence, visual injury after approximately 10 d, 0 to 100 scale where 0 is no effect and 100 is complete control; for pest or weed control at 500 g/ha: 500 g ai/ha, postemergence, visual injury, 0 to 100 scale (0 no effect, 100 complete control), approx. 10 d
In short: (§2)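 Visual injury, scored on a 0–100 scale relative to untreated controls, was recorded about 10 d after application. Treatments were a preemergence soil spray over planted seeds or a postemergence spray on plants at the one- to two-leaf stage, 2 to 10 cm tall, all in loam soil–sand blend in the greenhouse.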

[5] = system: Galium (catchweed bedstraw, Galium aparine); test: Test A postemergence; settings: Galium, post-emergence, 240 h, postemergence, approx. 10 d; for pest or weed control at 125 g/ha: 125 g ai/ha, visual injury on 0 to 100 scale (0 no effect, 100 complete control), read-out: Galium plant response rating; for pest or weed control at 500 g/ha: 500 g ai/ha, visual injury, 0 to 100 scale (0 no effect, 100 complete control), read-out: Plant response rating, Galium
In short: as §2

[6] = system: barnyardgrass (Echinochloa crus-galli); test: Test A postemergence; settings: Echinochloa crus-galli, post-emergence, 240 h, read-out: Plant response rating, Barnyardgrass; for pest or weed control at 125 g/ha: 125 g ai/ha, Postemergence, visual injury after approximately 10 d, 0 to 100 scale where 0 is no effect and 100 is complete control; for pest or weed control at 500 g/ha: 500 g ai/ha, postemergence, visual injury, 0 to 100 scale (0 no effect, 100 complete control), approx. 10 d
In short: as §2

[7] = system: ryegrass, Italian (Italian ryegrass, Lolium multiflorum); test: Test A postemergence; settings: Lolium multiflorum, post-emergence, 240 h, postemergence, approx. 10 d; for pest or weed control at 125 g/ha: 125 g ai/ha, visual injury on 0 to 100 scale (0 no effect, 100 complete control), read-out: Ryegrass, Italian plant response rating; for pest or weed control at 500 g/ha: 500 g ai/ha, visual injury, 0 to 100 scale (0 no effect, 100 complete control), read-out: Plant response rating, Ryegrass, Italian
In short: as §2

Kochia (Kochia scoparia) = test: Test A postemergence; settings: Bassia scoparia, post-emergence, 240 h, postemergence, approx. 10 d; for pest or weed control at 125 g/ha: 125 g ai/ha, visual injury on 0 to 100 scale (0 no effect, 100 complete control), read-out: Kochia plant response rating; for pest or weed control at 500 g/ha: 500 g ai/ha, visual injury, 0 to 100 scale (0 no effect, 100 complete control), read-out: Plant response rating, Kochia
In short: as §2

[8] = system: wheat (Triticum aestivum); test: Test A postemergence; settings: Triticum aestivum, post-emergence, 240 h, postemergence, approx. 10 d; for plant injury at 125 g/ha: 125 g ai/ha, visual injury on 0 to 100 scale (0 no effect, 100 complete control), read-out: Wheat plant response rating; for plant injury at 500 g/ha: 500 g ai/ha, visual injury, 0 to 100 scale (0 no effect, 100 complete control), read-out: Plant response rating, Wheat
In short: as §2

[9] = system: pigweed (Amaranthus retroflexus); test: Test A postemergence; settings: Amaranthus retroflexus, post-emergence, 240 h, postemergence, approx. 10 d; for pest or weed control at 125 g/ha: 125 g ai/ha, visual injury on 0 to 100 scale (0 no effect, 100 complete control), read-out: Pigweed plant response rating; for pest or weed control at 500 g/ha: 500 g ai/ha, visual injury, 0 to 100 scale (0 no effect, 100 complete control), read-out: Plant response rating, Pigweed
In short: as §2

corn (Zea mays) = test: Test A postemergence; settings: Zea mays, post-emergence, 240 h; for Corn plant response rating (crop injury, 0 = no effect, 100 = complete kill) at 125 g/ha: 125 g ai/ha, Postemergence, visual injury after approximately 10 d, 0 to 100 scale where 0 is no effect and 100 is complete control; for Corn plant response rating (crop injury, 0 = no effect, 100 = complete kill) at 500 g/ha: 500 g ai/ha, postemergence, visual injury, 0 to 100 scale (0 no effect, 100 complete control), approx. 10 d
In short: as §2

[10] = system: giant foxtail (Setaria faberii); test: Test A postemergence; settings: Setaria faberi, post-emergence, 240 h, postemergence, approx. 10 d; for pest or weed control at 125 g/ha: 125 g ai/ha, visual injury on 0 to 100 scale (0 no effect, 100 complete control), read-out: Foxtail, Giant plant response rating; for pest or weed control at 500 g/ha: 500 g ai/ha, visual injury, 0 to 100 scale (0 no effect, 100 complete control), read-out: Plant response rating, Foxtail, Giant
In short: as §2

[11] = system: ragweed (common ragweed, Ambrosia elatior); test: Test A postemergence; settings: Ambrosia artemisiifolia, post-emergence, 240 h, postemergence, approx. 10 d; for pest or weed control at 125 g/ha: 125 g ai/ha, visual injury on 0 to 100 scale (0 no effect, 100 complete control), read-out: Ragweed plant response rating; for pest or weed control at 500 g/ha: 500 g ai/ha, visual injury, 0 to 100 scale (0 no effect, 100 complete control), read-out: Plant response rating, Ragweed
In short: as §2

[12] = system: ragweed (common ragweed, Ambrosia elatior); test: Test A preemergence; settings: Ambrosia artemisiifolia, pre-emergence, 240 h; for pest or weed control at 125 g/ha: 125 g ai/ha, Preemergence, visual injury rating after approximately 10 d, read-out: Ragweed plant response rating (0 to 100 scale, 0 is no effect, 100 is complete control); for pest or weed control at 500 g/ha: 500 g ai/ha, preemergence, visual injury rating about 10 d after treatment, 0 to 100 scale (0 no effect, 100 complete control), read-out: Ragweed plant response rating
In short: as §2

Row | Compound | pest or weed control at 250 g/ha [1] | pest or weed control at 250 g/ha (rice (Oryra sativa)) | pest or weed control at 250 g/ha [2] | pest or weed control at 250 g/ha [3] | pest or weed control at 125 g/ha [4] | pest or weed control at 500 g/ha [4] | pest or weed control at 125 g/ha [5] | pest or weed control at 500 g/ha [5] | pest or weed control at 125 g/ha [6] | pest or weed control at 500 g/ha [6] | pest or weed control at 125 g/ha [7] | pest or weed control at 500 g/ha [7] | pest or weed control at 125 g/ha (Kochia (Kochia scoparia)) | pest or weed control at 500 g/ha (Kochia (Kochia scoparia)) | plant injury at 125 g/ha [8] | plant injury at 500 g/ha [8] | pest or weed control at 125 g/ha [9] | pest or weed control at 500 g/ha [9] | Corn plant response rating (crop injury, 0 = no effect, 100 = complete kill) at 125 g/ha (corn (Zea mays)) | Corn plant response rating (crop injury, 0 = no effect, 100 = complete kill) at 500 g/ha (corn (Zea mays)) | also measured
1 | CC(C)COc1cccc([C@H]2CN(C)C(=O)[C@@H]2C(=O)Nc2ccc(F)cc2F)c1 [Compound 1030] | 30% | 0% | 0% | 70% | 0% | 60% | 40% | 60% | 70% | 90% | 0% | 0% | 0% | 0% | 30% | 60% | 0% | 0% | 20% | 50% | pest or weed control at 125 g/ha [10]: 70%; pest or weed control at 500 g/ha [10]: 90%; pest or weed control at 125 g/ha [11]: 0%; pest or weed control at 500 g/ha [11]: 0%; pest or weed control at 125 g/ha [12]: 0%; pest or weed control at 500 g/ha [12]: 0%
2 | O=C(Nc1ccccc1F)[C@H]1C(=O)N(C2CC2)CC[C@@H]1c1ccccc1 [Compound 1031] | 0% | 0% | 0% | 0% | 0% | 0% | 0% | 0% | 0% | 0% | 0% | 0% | 0% | 0% | 0% | 0% | 0% | 0% | 0% | 0% | pest or weed control at 125 g/ha [10]: 0%; pest or weed control at 500 g/ha [10]: 0%; pest or weed control at 125 g/ha [11]: 0%; pest or weed control at 500 g/ha [11]: 0%; pest or weed control at 125 g/ha [12]: 0%; pest or weed control at 500 g/ha [12]: 0%
